Reference: patent publication US20240309090A1, “MODULATION OF ANDROGEN SIGNALING TO INNATE IMMUNE KILLING OF PROSTATE CANCER” (Brown University, priority 2023, published 2024)

Experiments:
Type in all cases: cell-based
[1] = tested on: PC3 cell line; experiment: Flow cytometry of HLA-E surface expression on AR-negative PC3; details: non-AR-transduced PC3
Description: (§1) To evaluate the modulation of the androgen receptor and tumor HLA-E expression, we astably transduced AR negative cell lines PC3 and DU145 with an Androgen Response Element (ARE) GFP reporter (FIG. 16H). […] Using AR+ constructed cell lines, PC3 and DU145, we sought to determine the dependence of HLA-E expression and possible modulation by AR. […] Although potential therapies targeting immune enhancement are being explored, the expression of exhaustion markers such as PD-1, NKG2A, and potential engaging ligands that diminish their cytotoxic function limits their application. Exploring these factors with new combination approaches, such as ARi and anti-NKG2A, and understanding the modulation of its targets upon treatment is key in overcoming immune-resistant scenarios, especially in prostate cancer.
Experiments were conducted with noncytotoxic doses of vorinostat (0.3 μM) and panobinostat (3 nM).
PCa cells were plated at a density of 3×10^5 cells per well of a 6-well plate and adhered overnight. […] After treatment, cells were trypsinized, stained, and incubated (Cell Staining Buffer SouthernBiotech #0225-01S) with the corresponding antibody for 45-60 min at 4° C. Viability dye was added with each run. NK-92 cells and patient-derived cells were stained similarly. Markers used for experiments included: Thermofisher HLA-E Monoclonal Antibody (3D12HLA-E), Alexa Fluor™ 488, eBioscience™, CD274 (PD-L1, B7-H1) Monoclonal Antibody (MIH1), eFluor™ 450, eBioscience™, Cell Signaling PD-1 (D4W2J) XPR Rabbit mAb, SYTOX™ Orange Dead Cell Stain, for flow cytometry, BioLegend APC anti-human CD159a (NKG2A) Antibody #375108, BioLegend APC anti-human CD69 Antibody #310909, BioLegend Alexa Fluor® 647 anti-human CD137 (4-1BB) [4B4-1] #309823. For staining of the patient-derived PBMCs and subsequent NK cell characterization, the following antibodies were used: BioLegend Anti-Perforin Mouse Monoclonal Antibody (PerCP Cy5.50, clone: dG9) #308113, BioLegend Anti-Granzyme B Mouse Monoclonal Antibody (FITC, clone: GB11) #515403, BioLegend Anti-CD56 Mouse Monoclonal Antibody (Alexa Fluor® 700, clone: 5.1H1) #362521, and BioLegend (PE anti-human CD45 Antibody) #304008.

[2] = tested on: DU145; experiment: Flow cytometry of HLA-E surface expression on non-AR-transduced DU145
Description: as §1
(§2) PCa cells were plated at a density of 3×10^5 cells per well of a 6-well plate and adhered overnight. […] After treatment, cells were trypsinized, stained, and incubated (Cell Staining Buffer SouthernBiotech #0225-01S) with the corresponding antibody for 45-60 min at 4° C. Viability dye was added with each run. NK-92 cells and patient-derived cells were stained similarly. […]

[3] = tested on: AR-transduced PC3-AR and DU145 cell lines; experiment: Flow cytometry of HLA-E surface expression on AR-transduced PC3 and DU145
Description: as §1, §2

[4] = tested on: LNCaP; experiment: Co-culture of LNCaP with NK-92 cells, immune-mediated tumor cell killing
Experimental: (§3) They were co-treated with enzalutamide ([…]) or darolutamide (20 μM) for 48 h. Doses of AR inhibitors (ARi) used in the co-culture experiments were based on previous IC50 experiments. […] The immune-mediated effect of NK-92 on the PCa cell lines in the presence of enzalutamide (immune enhancement death) was normalized to baseline immune and tumor cell killing in each condition [(tumor cells+immune cells)-tumor baseline death=baseline immune death]. […] Cytokine analysis was performed to investigate the activation phenotype of NK cells when treated with ARi.
Prostate cancer cell lines were dyed with the blue CMAC live-cell dye (Thermo Fisher Scientific #C2110, per manufacturer protocol). Blue-fluorescent cancer cells were plated at a density of 10,000 cells per well of a 48-well plate. NK-92 cells were dyed with green CMFDA (Cayman Chemical Company #19583, per manufacturer protocol). Green-fluorescent NK-92 cells were added to the blue-fluorescent cancer cells at a 1:1 ratio. Enzalutamide (10 μM), darolutamide (20 μM), and 1 μM ethidium homodimer (EthD-1) were added at the same time as the NK cells. After 24 hours of co-culture, images of live cancer cells, live NK cells, and dead cells were taken using a fluorescent microscope. The co-culture experiments were run with internal control conditions and as a single treatment. Normalization was performed after analysis to take baseline death conditions into each experiment run. […] Cell adhered over 24 h, and when patient-derived NK cells were added, a control well was trypsinized, and cells resuspended and counted to adjust a 1:1 ratio before treatment addition. […]
(§4) Live cancer cells, NK cells, and dead cells were quantified using FIJI (Fiji Is Just ImageJ) software for images derived from fluorescent co-culture images. Images from the ImageXpress system were quantified using MetaXpress cytoplasmic/nuclear staining software. The percent of dead tumor cells in each well was quantified, and this percentage was normalized by subtracting baseline death from cancer cell-only wells, NK cell-only wells, or both.

[5] = tested on: DU145; experiment: Co-culture of DU145 with NK-92 cells, immune-mediated tumor cell killing; details: DU145 + NK-92 1:1, 24 hours
Experimental: as §3
Prostate cancer cell lines were dyed with the blue CMAC live-cell dye (Thermo Fisher Scientific #C2110, per manufacturer protocol). […] Cell adhered over 24 h, and when patient-derived NK cells were added, a control well was trypsinized, and cells resuspended and counted to adjust a 1:1 ratio before treatment addition. […]
as §4

[6] = tested on: NK-92 cells; experiment: NK cell viability assay (CellTiterGlo); details: NK cells alone, doses used in co-culture
Experimental: For NK cell viability assays, 5×10^3 cells were plated in a 96-well plate, and viability (72h) was measured using a CellTiterGlo assay.

Compound	HLA-E expression [1]	HLA-E expression [2]	HLA-E surface expression upon ARi ([3]; AR-responsive PC3-AR)	HLA-E surface expression upon ARi ([3]; AR-transduced (AR-responsive) DU145)	cell death rate (NK cell-mediated tumor killing) ([4]; LNCaP + NK-92 1:1, 24 hours)	NK cell killing of PCa cells (immune enhancement) ([4]; LNCaP + NK-92 1:1, enzalutamide 10 μM, FIG. 15A)	cell death rate (NK cell-mediated tumor killing) [5]	NK cell viability [6]
CC(O)c1cc(C(=O)N[C@@H](C)Cn2ccc(-c3ccc(C#N)c(Cl)c3)n2)n[nH]1 (some centres unmarked) [darolutamide]	15.47%	1.23%	increased	increased				
CNC(=O)c1ccc(N2C(=S)N(c3ccc(C#N)c(C(F)(F)F)c3)C(=O)C2(C)C)cc1F [enzalutamide]					48.3%	35.32%	34.8±4.92%	noncytotoxic
